From patent US20150152395A1, “CHIMERIC LUCIFERASES” (Connecticut College, priority 2012, published 2015) come the findings set out here.

Series [1] relates to PpyLit, chimeric luciferase of PpyWT residues 1-439 and LitWT residues 440-550, SEQ ID NO: 8. The experiment in a line: Relative rate of adenylate formation (L-AMP formation from dehydroluciferin), fluorescence-based. Type of series: biochemical, Photinus pyralis / Luciola italica. The settings on record: faster than PpyWT, pH 7.4. Here is the method:
Using an excitation wavelength of 350 nm, the luciferase-catalyzed formation of L-AMP from dehydroluciferin (L), initiated by the addition of Mg-ATP, was assessed by following the decrease in the intensity of the 440 nm fluorescence of the initial enzyme-L complex. The change in fluorescence was used to estimate the rates of L-AMP formation catalyzed by the luciferases. Assays (0.4 mL) in 50 mM Tris buffer, pH 7.4 contained 2.8 μM enzyme and 0.55 μM L. The initial fluorescence at 440 nm was recorded and then the decrease was monitored following the rapid injection of 50 μL solutions of varying concentrations of Mg-ATP in the same buffer. The rates of decrease (slopes) were calculated and used to determine the initial velocities for each Mg-ATP concentration. The data were fitted using a nonlinear least squares method of the Enzyme Kinetics Pro software (SynTex), which fits data from the Michalis-Menten equation to a rectangular hyperbola, and the Vmax values were obtained. The corresponding kcat values were obtained by dividing the Vmax values (μmol/s) by the final amounts (μmol) of each luciferase in the assay mixtures.

The target of series [2] is Photinus pyralis luciferase, recombinant wild type (PpyWT), SEQ ID NO: 4, with N-terminal peptide GPLGS (Photinus pyralis, UniProt P08659). Put plainly: Steady-state kinetic constants, bioluminescence activity. Type of series: biochemical. The note with it: pH 7.8; Vmax from LH2 Km measurement.
Chain of Photinus pyralis luciferase, recombinant wild type (PpyWT), SEQ ID NO: 4, with N-terminal peptide GPLGS (P08659 whole entry): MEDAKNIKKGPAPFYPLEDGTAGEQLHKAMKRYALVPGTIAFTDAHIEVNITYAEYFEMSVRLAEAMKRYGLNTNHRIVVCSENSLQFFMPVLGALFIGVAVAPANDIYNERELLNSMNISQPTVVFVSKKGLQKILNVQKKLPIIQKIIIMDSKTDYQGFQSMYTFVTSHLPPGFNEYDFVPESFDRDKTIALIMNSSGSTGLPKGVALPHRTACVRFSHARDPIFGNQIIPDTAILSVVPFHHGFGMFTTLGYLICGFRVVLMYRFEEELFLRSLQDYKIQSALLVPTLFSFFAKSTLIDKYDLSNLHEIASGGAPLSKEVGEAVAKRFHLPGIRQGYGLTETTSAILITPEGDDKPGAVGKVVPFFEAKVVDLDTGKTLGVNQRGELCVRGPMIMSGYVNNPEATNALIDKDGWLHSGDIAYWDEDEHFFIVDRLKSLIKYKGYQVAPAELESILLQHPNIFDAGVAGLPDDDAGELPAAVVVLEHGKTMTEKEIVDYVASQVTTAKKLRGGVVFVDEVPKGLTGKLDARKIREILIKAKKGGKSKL
For series [3], the system named is Ppy GR-TSLit, chimeric luciferase of Ppy GR-TS N-domain and LitWT C-domain. The description is as above. The note with it: pH 7.8. The format is biochemical, Photinus pyralis / Luciola italica. On the procedure: (§1) Reactions were initiated by injection of solutions of the substrate being maintained at saturating concentration. Kinetic constants were determined using a nonlinear least squares method of the Enzyme Kinetics Pro software (SynTex), which fits data from the Michalis-Menten equation to a rectangular hyperbola. The corresponding kcat values were obtained by dividing the Vmax values by the amount (μmol) of each luciferase in the assay mixtures.

Series [4] deals with PpyLit (chimeric luciferase, SEQ ID NO: 8) variant S284T. Described as above. The format is biochemical, Photinus pyralis / Luciola italica. The settings on record: pH 7.8. On the procedure: as §1
In series [5] the test system is PpyLit (chimeric luciferase, SEQ ID NO: 8) variant F465R. The series is described as above. The note with it: pH 7.8. Type of series: biochemical, Photinus pyralis / Luciola italica. Here is the method: as §1
Series [6] has as its system PpyLit (chimeric luciferase, SEQ ID NO: 8) variant I351V/E354K. The series is described as above. Type of series: biochemical, Photinus pyralis / Luciola italica. The note with it: pH 7.8. Here is the method:
as §1

Series [7] has as its system PpyLit (chimeric luciferase, SEQ ID NO: 8) variant S284T/F465R. The series is described as above. The format is biochemical, Photinus pyralis / Luciola italica. The note with it: pH 7.8. Here is the method: as §1
Series [8] concerns Ppy RE-TSLit, chimeric luciferase of Ppy RE-TS N-domain and LitWT C-domain. Described as above. The format is biochemical, Photinus pyralis / Luciola italica. The settings on record: pH 7.8. On the procedure:
as §1

Series [9] deals with PpyLit (chimeric luciferase, SEQ ID NO: 8) variant I232A/I351V/E354K. The series is described as above. The format is biochemical, Photinus pyralis / Luciola italica. The note with it: pH 7.8. Here is the method:
as §1

Series [10] has as its system PpyLit (chimeric luciferase, SEQ ID NO: 8) variant S284T/I351V/E354K. Described as above. The settings on record: pH 7.8. Type of series: biochemical, Photinus pyralis / Luciola italica. On the procedure:
as §1

For series [11], the system named is PpyLit (chimeric luciferase, SEQ ID NO: 8) variant I232A/E354K. The description is as above. The note with it: pH 7.8. The format is biochemical, Photinus pyralis / Luciola italica. Here is the method: as §1
In series [12] the test system is PpyLit, chimeric luciferase of PpyWT residues 1-439 and LitWT residues 440-550, SEQ ID NO: 8. The description is as above. Type of series: biochemical, Photinus pyralis / Luciola italica. The note with it: pH 7.8. Here is the method: as §1
Series [13] deals with PpyLit (chimeric luciferase, SEQ ID NO: 8) variant I351V/E354K/F465R. The description is as above. Type of series: biochemical, Photinus pyralis / Luciola italica. The settings on record: pH 7.8. On the procedure: as §1
Series [14] has as its system LitPpy, chimeric luciferase of LitWT residues 1-439 and PpyWT residues 440-550. The description is as above. Type of series: biochemical, Luciola italica / Photinus pyralis. The settings on record: pH 7.8. Here is the method:
as §1

The subject of series [15] is PpyLit, chimeric luciferase of PpyWT residues 1-439 and LitWT residues 440-550, SEQ ID NO: 8. Put plainly: Rate of oxidative half-reaction with synthetic LH2-AMP. The note with it: faster than PpyWT; LH2-AMP as substrate, pH 7.8. The format is biochemical, Photinus pyralis / Luciola italica. On the procedure:
The estimated rates of the oxidative half-reactions were based on bioluminescence activity assays using synthetic LH2-AMP as the substrate. Assays (0.510 mL) in 50 mM glycylglycine buffer, pH 7.8, contained 0.1 mL aliquots of LH2-AMP solution (final concentration 1.5-35 μM) in 10 mM sodium acetate, pH 4.5. Immediately, light reactions were initiated by injections of 10 μL of luciferase enzymes (0.4-1 μg in CBA). Kinetic constants were determined using a nonlinear least squares method of the Enzyme Kinetics Pro software (SynTex), which fits data from the Michalis-Menten equation to a rectangular hyperbola. The corresponding kcat values were obtained by dividing the Vmax values by the final amounts (μmol) of each luciferase in the assay mixtures.

Substrate in series [16]: Nc1ncnc2c1ncn2[C@@H]1O[C@H](COP(=O)(O)OP(=O)(O)OP(=O)(O)O)[C@@H](O)[C@H]1O
The experiment in a line: purified protein, by the assay type. The settings on record: other: pH 7.8, LH2 saturating, 37.0 °C.

Substrate in series [17]: O=C(O)[C@H]1CSC(c2nc3ccc(O)cc3s2)=N1
Put plainly: purified protein, by the assay type. The settings on record: other: pH 7.8, Mg-ATP saturating, 37.0 °C.

The mark [18] stands for this setting: read-out: Km LH2, Mg-ATP saturating.

On to `O=C(O)c1csc(-c2nc3ccc(O)cc3s2)n1` [L, dehydroluciferin], for which the “rate of adenylate formation half reaction” value in series [1] is roughly 1.35 fold.
What is called kcat is the maximal rate divided by the concentration of active sites. One may read the Km as the substrate concentration at which the rate is half of its maximum. As to `O=C(O)[C@H]1CSC(c2nc3ccc(O)cc3s2)=N1` [LH2, D-firefly luciferin], the turnover number (kcat) in [2] is 0.18 ± 0.01 s⁻¹; in [3] (Vmax from LH2 Km measurement), 0.079 ± 0.001 s⁻¹; in series [4] (Vmax from LH2 Km measurement), 0.10 ± 0.01 s⁻¹; in [5] (Vmax from LH2 Km measurement), 0.34 ± 0.02 s⁻¹; in series [6] (Vmax from LH2 Km measurement), 0.30 ± 0.02 s⁻¹; in series [7] (Vmax from LH2 Km measurement), 0.10 ± 0.01 s⁻¹. The kcat in [8] (Vmax from LH2 Km measurement) worked out at 0.09 ± 0.003 s⁻¹; in [9] (Vmax from LH2 Km measurement), 0.24 ± 0.01 s⁻¹; in [10] (Vmax from LH2 Km measurement), 0.13 ± 0.01 s⁻¹; in series [11] (Vmax from LH2 Km measurement) it was 0.25 ± 0.01 s⁻¹; in series [12] (Vmax from LH2 Km measurement), 0.32 ± 0.02 s⁻¹; in series [13] (Vmax from LH2 Km measurement), 0.29 ± 0.01 s⁻¹. Also, in series [14] (Vmax from LH2 Km measurement), the kcat was determined as 0.033 ± 0.001 s⁻¹. The Michaelis constant (Km) worked out at 123 ± 9 µM in [3] (setting [18]); 15 ± 2 µM in series [4] (setting [18]); 31 ± 3 µM in [5] (setting [18]); 52 ± 5 µM in [6] (setting [18]); 22 ± 3 µM in series [7] (setting [18]); 51 ± 3 µM in [8] (setting [18]). Besides, the Michaelis constant (Km) amounted to 51 ± 5 µM in [9] (setting [18]); 49 ± 5 µM in series [10] (setting [18]); 24 ± 3 µM in [11] (setting [18]); 25 ± 2 µM in [12] (setting [18]); 83 ± 3 µM in [13] (setting [18]); 54 ± 5 µM in series [14] (setting [18]).
With `Nc1ncnc2c1ncn2[C@@H]1O[C@H](COP(=O)(O)OC(=O)[C@H]2CSC(c3nc4ccc(O)cc4s3)=N2)[C@@H](O)[C@H]1O` [LH2-AMP], in [15], the “rate of oxidative half reaction” value is reported as roughly 1.35 fold.

B1: LitWT, recombinant Luciola italica luciferase containing Lys547Gly/Met548Gly, SEQ ID NO: 6, with N-terminal peptide GPLGS (Luciola italica; K547G/M548G) (protein)
chain: METEREENVVYGPLPFYPIEEGSAGIQLHKYMQQYAKLGAIAFSNALTGVDISYQQYFDITCRLAEAMKNYGMKPEGHIALCSENCEEFFIPVLAGLYIGVTVAPTNEIYTLRELNHSLGIAQPTIVFSSRKGLPKVLEVQKTVTCIKTIVILDSKVNFGGYDCVETFIKKHVELGFPATSFVPIDVKDRKHHIALLMNSSGSTGLPKGVEITHEGTVTRFSHAKDPIYGNQVSPGTAILTVVPFHHGFGMFTTLGYFACGYRIVMLTKFDEELFLRTLQDYKCTSVILVPTLFAILNRSELLDKFDLSNLTEIASGGAPLAKEIGEAVARRFNLPGVRQGYGLTETTSAFIITPEGDDKPGASGKVVPLFKVKIIDLDTKKTLGVNRRGEICVKGPSLMLGYTNNPEATRETIDEEGWLHTGDIGYYDEDEHFFIVDRLKSLIKYKGYQVPPAELESVLLQHPNIFDAGVAGVPDSEAGELPGAVVVMEKGKTMTEKEIVDYVNSQVVNHKRLRGGVRFVDEVPKGLTGKIDAKVIREILKKPQAGG
On to B1, for which the Michaelis constant (Km) in [16] was determined as 180 ± 14 µM; in series [17] it was 90 ± 9 µM. In addition, in series [17], the kcat worked out at 0.14 ± 0.01 s⁻¹.
